The record followed here is patent publication US4514420A, “Antifibrotic agent” (Takeda Chemical Industries, Ltd., priority 1982, dated 1985).

The target in data set [1] is T1, Protocollagen proline hydroxylase (Gallus gallus, UniProt P16924).
T1 construct: partially purified enzyme preparation derived from chick embryos; from tissue; host or cells: chick embryos
T1 sequence (P16924 1-516): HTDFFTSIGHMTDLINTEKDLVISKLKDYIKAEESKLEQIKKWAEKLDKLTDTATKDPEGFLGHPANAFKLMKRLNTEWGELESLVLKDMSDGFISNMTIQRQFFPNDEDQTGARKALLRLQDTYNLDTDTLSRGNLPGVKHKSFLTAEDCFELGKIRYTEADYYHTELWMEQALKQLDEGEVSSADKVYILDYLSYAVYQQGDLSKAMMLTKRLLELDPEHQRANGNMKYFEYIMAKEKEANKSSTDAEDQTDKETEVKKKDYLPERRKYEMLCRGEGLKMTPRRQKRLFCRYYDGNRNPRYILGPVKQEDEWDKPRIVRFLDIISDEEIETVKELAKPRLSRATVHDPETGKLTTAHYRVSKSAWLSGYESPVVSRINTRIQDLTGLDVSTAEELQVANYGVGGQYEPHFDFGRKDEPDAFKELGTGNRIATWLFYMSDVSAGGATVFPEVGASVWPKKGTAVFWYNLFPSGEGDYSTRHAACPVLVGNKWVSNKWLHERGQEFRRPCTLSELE
T1 sequence (P09102 23-515 partner): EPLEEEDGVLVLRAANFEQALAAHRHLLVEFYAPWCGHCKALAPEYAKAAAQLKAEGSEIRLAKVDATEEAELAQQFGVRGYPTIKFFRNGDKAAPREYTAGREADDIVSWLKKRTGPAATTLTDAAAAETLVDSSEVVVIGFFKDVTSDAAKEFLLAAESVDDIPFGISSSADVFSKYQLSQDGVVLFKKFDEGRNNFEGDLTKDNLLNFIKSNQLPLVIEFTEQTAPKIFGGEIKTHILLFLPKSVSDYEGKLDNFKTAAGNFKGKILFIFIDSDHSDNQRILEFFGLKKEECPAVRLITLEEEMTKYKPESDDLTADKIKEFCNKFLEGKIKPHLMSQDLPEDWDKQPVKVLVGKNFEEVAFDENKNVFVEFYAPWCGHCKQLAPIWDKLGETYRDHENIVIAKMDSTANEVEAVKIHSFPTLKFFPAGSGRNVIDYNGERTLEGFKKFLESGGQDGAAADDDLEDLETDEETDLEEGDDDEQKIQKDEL
The data set can be described thus: Protocollagen proline hydroxylase-inhibiting activity. Conditions: partially purified chick embryo enzyme, 100 μg as protein, substrate (Pro-Pro-Gly)5.4H2O; for inhibition at 20 µM: Concentration 20 μM. In kind it is biochemical. As to the method: (1) Protocollagen proline hydroxylase-inhibiting activity
This inhibitory activity was assayed by the procedure of R. E. Rhoads et al. (Methods in Enzymology XVII B, 306 (1971)) using a partially purified enzyme preparation derived from chick embryos in accordance with the methods of K. I. Kivirriko et al. and J. Halme et al. (J. Biol. Chem. 242, 4007 (1967) and Biochem. Biophys. Acta 198, 460 (1967), and, as a substrate, (Pro-Pro-Gly)5.4H2 O (Protein Research Foundation, Osaka). In this assay, the partially purified enzyme preparation was used in the amount of 100 μg as protein. The results are shown in Table 1.

The next data set deals with Collagen biosynthesis. Kind of data set: Collagen biosynthesis inhibiting activity (collagen content of the uterus). The format is in vivo, rats of SD strain. Conditions: female SD rats; for Collagen content of uterus / Body weight of rats: groups of 3; for Collagen content of uterus: control 1.64 ± 0.3; for Body weight of rats: control 73 ± 6. As for the experimental part:
(2) Collagen biosynthesis inhibiting activity
Basically in accordance with the method of R. A. Salvador et al. [Arch. Biochem. Biophys. 174, 382 (1976)], 0.2 mg/kg of each test compound was intraperitoneally administered to rats of SD strain (.female., 3 weeks old) once daily for 6 consecutive days and the collagen content of the uterus was compared with the control value.
*Rats were used in groups of 3. Initial body weights = 41 ± 2 ~

Data set [2] in a line: Toxicity, gastric gavage to rats in a 5-week regimen. In kind it is in vivo. To be noted: 2500 mg/kg/day. From the text:
The compound (I) is very low in toxicity.

Where [3] appears, read: 17β-Estradiol alone, 0.2 mg/kg intraperitoneally once daily for 6 consecutive days.
Setting [4] is: given with 17β-Estradiol, 0.2 mg/kg of each test compound intraperitoneally once daily for 6 consecutive days.

`COC1=C(OC)C(=O)C(CCCCCCCC(=O)O)=C(C)C1=O` [A:CO n:7 R:H] had an inhibition at 20 µM in data set [1] of 35%.

With `C[C@]12CC[C@@H]3c4ccc(O)cc4CC[C@H]3[C@@H]1CC[C@@H]2O` [17β-Estradiol, reference compound], in the data set with Collagen biosynthesis (setting [3]), the “Collagen content of uterus” value amounted to 3.45 ± 0.11 and the “Body weight of rats” value worked out at 73 ± 3 g.

`COC1=C(OC)C(=O)C(CCCCCCCCCC(=O)O)=C(C)C1=O` [A:CO n:9 R:H] gave an inhibition at 20 µM in data set [1] of 31%.

`COC1=C(OC)C(=O)C(CCCCO)=C(C)C1=O` [A:CH2 n:3 R:H] yielded an inhibition at 25 µM in data set [1] (Concentration 25 μM) of 68%.

Turning to `COC(=O)CCCCCCCCCC1=C(C)C(=O)C(OC)=C(OC)C1=O` [A:CO n:9 R:CH3], at 20 µM the inhibition in data set [1] was 21%.

For the molecule `COC(=O)CCCC1=C(C)C(=O)C(OC)=C(OC)C1=O` [A:CO n:3 R:CH3], at 50 µM the inhibition in data set [1] (Concentration 50 μM) was 47%.

`COC1=C(OC)C(=O)C(CCCC(=O)O)=C(C)C1=O` [A:CO n:3 R:H]: 20 µM produced 57% inhibition in data set [1].

For `COC1=C(OC)C(=O)C(CCCCCCCCCCO)=C(C)C1=O` [A:CH2 n:9 R:H, 2,3-dimethoxy-5-methyl-6-(10'-hydroxydecyl)-1,4-benzoquinone], in the data set on Collagen biosynthesis (setting [4]), the “Collagen content of uterus” value is recorded as 2.94 ± 0.28 and the “Body weight of rats” value came to 69 ± 6 g. The molecule further displayed a Degree of inhibition in the data set with Collagen biosynthesis (given with 17β-Estradiol, 0.2 mg/kg of each test compound intraperitoneally once daily for 6 consecutive days, formula in footnote ** (drawing 3)) of 28. Also, in data set [2], the “Abnormalities in body weight, food intake, urinalysis and blood tests” value was “no abnormalities in body weight, food intake, urinalysis and blood tests”. The molecule also showed an inhibition at 20 µM in data set [1] of 37%.

As usually defined, the inhibition is the change of the read-out against control, counted positive when it falls. A high value points to a response far below the control.
